Laboratory results published in patent US12528792B2, “Sulfonamide compounds and the use thereof in the treatment of cancer” (TROBIO THERAPEUTICS PTY LTD, priority 2019, dated 2026).

Key:
Assay type in all cases: cell-based
A549 (NSCLC) cells = assay: Anti-proliferative activity, Cell-Titre luminescent viability assay; settings: Homo sapiens, 72 h exposure, Cell-Titre luminescent reagent
Method in brief: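 Cells attached 24 h at 37° C., 5% CO2, then treated 72 h with compound at 0.3–100 μM or 0.1–30 μM. Viability read by Cell-Titre luminescence after 30 min reagent exposure, normalized to vehicle; EC50 from variable-slope sigmoidal nonlinear regression.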

[1] = molecular target: T1, Tpm3.1-containing actin microfilaments in SK-N-SH neuroblastoma cells (Homo sapiens, UniProt P06753); assay: Imaging and quantitation of Tpm3.1 mCherry and 488-Atto-Phalloidin actin filaments; settings: 24 hours post-treatment, two concentrations, FIG. 2 and FIG. 3
T1 construct: expressed in transfected cells; host or cells: SK-N-SH neuroblastoma cells
Method: The ability of compounds 24, 26 and 143 to disrupt Tpm3.1-containing actin microfilaments was investigated in SK—N—SH neuroblastoma cells that express Tpm3.1 labelled with the mCherry fluorophore. Cells were seeded at 3×10^4 cells per well in a volume of 1000 μL complete media onto a 12 well plate containing 13 mm coverslips and left to plate down for 24 hours prior to treatment. Cells were then treated with DMSO and two concentrations of the test compounds. 24 hours post-treatment, cells were fixed with 16% paraformaldehyde (PBS) and stained with 488-Atto-Phalloidin to visualise the actin filament bundles. Single plane images were obtained using the Olympus IX83 epi-fluorescence microscope. Ten fields of view were collected for both Tpm3.1 mCherry fluorophore (FIG. 2) and 488-Atto-Phalloidin (FIG. 3) with each treatment condition.
Quantitation of either Tpm3.1 mCherry filaments or 488-Atto-Phalloidin filaments was performed using ImageJ 1.52p software (ImageJ, NIH). The mean pixel intensity from a cell was measured by using a line across the entire cell cytoplasmic area above or below the nuclear region. The line was made to cross the filament bundles at a 90° angle for the measurement rather than run along a single filament. A total of n=100 cells were measured from ten fields of view. […]

[2] = tested on: A2780 ovarian cancer cells; assay: In vitro growth inhibition assay, Alamar Blue, single agent IC50; settings: Homo sapiens, 72 h drug exposure, Alamar Blue, 384-well (26*: 96-well plate format), read-out: Single-agent IC50
Method: (§1) In vitro growth inhibition assays were performed as technical triplicate in two independent experiments and cell viability was assessed by Alamar Blue assay readout. Briefly, cells in logarithmic phase growth were seeded in 384-well plates in a 50 μL/well assay volume. Cells were seeded at 1,200 cells/well using a Multidrop 384 (Thermo Scientific) and allowed to adhere at 37° C. with 5% CO2, in a humidified atmosphere (LiCONIC incubator). After 24 hours incubation, test compounds, positive control (20 μM Thonzonium bromide, 100% kill) and vehicle only (0.4% DMSO) were added into wells of each assay plate using a Tecan HP D300 Digital Dispenser in technical triplicate under minimum light. Following 72 hours drug exposure, metabolic activity was detected by addition of 10% (v/v) Alamar Blue reagent to each assay well using a Multidrop Cambi (Thermo Scientific) and determined by measurement of fluorescence intensity (excitation 555 nm, emission 585 nm) using an EnSpire (Perkin Elmer) plate reader. Readings were performed at 0 hour (background) and after 6 hours alamar blue incubation at 37° C.
Each drug was tested as a 10-point concentration series with two-fold serial dilutions of each drug. The concentration series for compounds 6 and 8 was 100, 50, 25, 12.5, 6.25, 3.125, 1.563, 0.781, 0.391 and 0.195 μM and for compounds 24, 43 and 48 was 50, 25, 12.5, 6.25, 3.125, 1.563, 0.781, 0.391, 0.195 and 0.098 μM for the two independent experiments. The concentration series for vinorelbine and paclitaxel was 100, 50, 25, 12.5, 6.25, 3.125, 1.5625, 0.781, 0.391 and 0.195 nM. Thonzonium bromide (20 μM) and 0.4% DMSO were used as positive and vehicle controls, respectively. The IC50 value was calculated by derivation of the best-fit line using a sigmoidal dose response model (Activity Base Software Suite, IDES).
Activity Base software suite (IDES, version 8.3.0.175) was used for data analysis. Cell survival is expressed as a percentage of viable cells. IC50 concentrations were calculated by derivation of the best-fit line using a sigmoidal dose response model with technical triplicate data points.

[3] = tested on: A2780 ovarian cancer cells; assay: Drug combination screen, 6x6 dose matrix, Bliss-independence synergy; set-up: key to Max. Synergy, Vinorelbine: Bliss synergy score; 0 = no synergy, negative = antagonism; highest in matrix; key to Total Synergy, Vinorelbine: sum of Bliss synergy scores across the dose matrix; settings: 72 h (26*: 96-well plate format)
Method: as §1
The two drugs in each combination matrix were dispensed using a Tecan HP D300 Digital Dispenser. Assays were performed in triplicate for each drug combination (test compound/vinorelbine and test compound/paclitaxel combinations). Synergistic drug interactions were calculated from the averaged cell viability data using the methodology described below.
Synergistic drug interactions were determined for each pa1rw1se drug combination by applying the Bliss-independence model that assumes independence of drug mechanisms. Prior to the analysis, percent cell viability (CV) for combination data were converted to fractional cell growth inhibition (GI) by the formula: […]
The Bliss additivism model was used to calculate a predicted combined response C to two single agents with responses A and B (using GI values), as follows:
The final score for any combination was reported as the difference between the value predicted by the additive model and the experimentally observed value, normalised to 100. Using GI values the maximum possible synergy score is 100, with 0 indicating no synergy and negative indicating possible antagonism. Scores were also reported as a “Max synergy” score, which is the highest individual synergy score for each combination matrix, and a “Total synergy” score, which was obtained by summation of each individual synergy score for the matrix.
The single agent IC50 values for the test compounds and their synergy scores in combination with vinorelbine and paclitaxel are presented in Table 4. The data is listed as IC50 mean from technical triplicates for two independent experiments. The averaged IC50 concentrations for the single agents from both runs were then used to generate the 6×6 dose matrices in the synergy experiment. Synergy scores for each drug combination were calculated by the Bliss-independence model. The maximum synergy and total synergy scores for each combination in A2780 cells are listed.

T1 sequence (P06753 1-248 isoform P06753-2): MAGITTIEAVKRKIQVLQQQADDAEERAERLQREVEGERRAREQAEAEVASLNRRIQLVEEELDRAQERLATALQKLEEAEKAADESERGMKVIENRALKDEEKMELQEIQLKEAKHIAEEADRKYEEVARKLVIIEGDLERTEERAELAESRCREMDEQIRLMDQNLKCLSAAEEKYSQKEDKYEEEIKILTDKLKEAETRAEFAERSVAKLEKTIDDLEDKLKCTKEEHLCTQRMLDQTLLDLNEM

IC50 (A549 (NSCLC) cells): 6.8 µM | IC50 [2]: 12.5 µM
SMILES: O=C(Nc1ccc(C(F)(F)F)cc1)c1ccn(S(=O)(=O)c2ccc3[nH]ccc3c2)c1 [Compound 26, 1-((1H-indol-5-yl)sulfonyl)-N-(4-(trifluoromethyl)phenyl)-1H-pyrrole-3-carboxamide]
Disruption of Tpm3.1-containing actin microfilaments [1]: disrupt Tpm3.1-containing actin microfilaments in a dose-dependent manner | Max. Synergy, Paclitaxel ([3]; combination with paclitaxel, Bliss score): 7.83 | Total Synergy, Paclitaxel ([3]; combination with paclitaxel, sum of Bliss scores of the matrix): 61.23 | Max. Synergy, Vinorelbine ([3]; combination with vinorelbine, Bliss score): 10.86 | Total Synergy, Vinorelbine ([3]; combination with vinorelbine, sum of Bliss scores of the matrix): 60.91
